Experimental data from patent US9206432B2, “Sulfonylurea-responsive repressor proteins” (priority 2008, dated 2015).

Tests used:
[1] = system: lacZ under control of the tetA promoter (PtetA) in E. coli KM3; assay type: cell-based; settings: L1 hits, SU compounds at 20 μg/ml
[2] = system: tet operator (tetO); assay: Electrophoretic gel mobility shift assay (EMSA), operator binding and release by inducer; settings: ethametsulfuron repressor protein (L7A11) on TetO (FIG. 7)
[3] = pH 7; cited from earlier work

**Q.** Which results are given for `CCOc1nc(NC)nc(NC(=O)NS(=O)(=O)c2ccccc2C(=O)OC)n1` [ethametsulfuron, Ethametsulfuron-methyl, reference compound]?
**A.** potency as activator compared with Harmony® [1]: more potent activators than the starting ligand Harmony®; operator release by inducer [2]: inducer preference for operator release by Es compared to Cs

**Q.** For `CCOC(=O)c1ccccc1S(=O)(=O)NC(=O)Nc1nc(Cl)cc(OC)n1` [chlorimuron, Chlorimuron-ethyl, reference compound], which “potency as activator compared with Harmony®” value [1] is on record?
**A.** The value was “more potent activators than the starting ligand Harmony®”.

**Q.** Which “potency as activator compared with Harmony®” value [1] does the source give for `COc1nc(C)nc(NC(=O)NS(=O)(=O)c2ccccc2Cl)n1` [chlorsulfuron, 2 chloro N ((4 methoxy 6 methy 1,3,5 triazine 2 yl)aminocarbonyl)benzenesulfonamide, reference compound] here?
**A.** Its value is “more potent activators than the starting ligand Harmony®”.

**Q.** Which “operator release by inducer” value [2] does the source give for `Cc1c2c(c(O)c3c(O)cccc13)C(=O)[C@]1(O)C(=O)C(C(N)=O)=C(O)[C@@H](N(C)C)[C@@H]1C2` [atc, anhydrotetracycline] here?
**A.** The value was “No change in operator release”.

**Q.** With `COC(=O)c1sccc1S(=O)(=O)NC(=O)Nc1nc(C)nc(OC)n1` [Harmony®, Thifensulfuron-methyl] as the compound, how does the logP [3] read?
**A.** The logP was ~0.02.
